Some test systems named below: NCI/ADR-RES ovarian; SF-539 CNS; RPMI-8226 leukemia; KM12 colon; SW-620 colon; 786-0 renal; HCC-2998 colon; HT29 colon; HOP-92 NSCLC; OVCAR-8 ovarian; HCT-116 colon; SF-295 CNS; LOX IMVI melanoma; SF-268 CNS; K-562 leukemia; UACC-257 melanoma; OVCAR-5 ovarian; MDA-N; MALME-3M melanoma.
Assay in all cases: growth of human tumour cells (NCI), 48 h

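Interpolation was linear, between the two tested concentrations surrounding the appropriate level; five concentrations were tested over 48 hours in 96-well plates. TGI: concentration producing complete growth inhibition.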 Bounds are passed on as bounds.

For `CCOC(=O)c1c(NC(=O)OC)c(C#N)c2n1CCCCC2`, the TGI in the experiment on NCI/ADR-RES ovarian, with SF-539 CNS, in the experiment with RPMI-8226 leukemia, in the experiment on KM12 colon, in the experiment on SW-620 colon and in the experiment with 786-0 renal was over 100 µM each time. The TGI in the experiment with HCC-2998 colon, in the experiment with HT29 colon, in the experiment on HOP-92 NSCLC, in the experiment with OVCAR-8 ovarian, in the experiment on HCT-116 colon and in the experiment with SF-295 CNS was over 100 µM in each case. Further, the TGI in the experiment on LOX IMVI melanoma, with SF-268 CNS, in the experiment with K-562 leukemia and with UACC-257 melanoma was over 100 µM in each case.
With `CC(C)N(C(=O)C1(O)c2ccccc2C=Cc2ccccc21)C(C)C`, the TGI with NCI/ADR-RES ovarian was 35.4 µM; in the experiment on SF-539 CNS it was 33.4 µM; with RPMI-8226 leukemia, over 100 µM; in the experiment with KM12 colon it was 49.7 µM; with SW-620 colon, 31.3 µM; in the experiment with 786-0 renal it was 38.8 µM. In addition, the TGI in the experiment on OVCAR-5 ovarian was determined as 27.9 µM; with HT29 colon it was 33.5 µM; in the experiment on OVCAR-8 ovarian it was 30.5 µM; with HCT-116 colon, 32.8 µM; in the experiment with SF-295 CNS, 33.7 µM; with SF-268 CNS it was 36 µM. Moreover, the TGI in the experiment on MDA-N worked out at 37.9 µM; with MALME-3M melanoma, 31.5 µM.
As for `COC(=O)[C@]12CCC(C)(C)C[C@H]1[C@H]1C(=O)C=C3[C@@]4(C)C=C(C#N)C(=O)C(C)(C)[C@@H]4CC[C@@]3(C)[C@]1(C)CC2`, the TGI is 0.0337 µM in the experiment on NCI/ADR-RES ovarian; 0.103 µM in the experiment on SF-539 CNS; 0.126 µM in the experiment on RPMI-8226 leukemia; 0.159 µM in the experiment with KM12 colon; 0.946 µM in the experiment with SW-620 colon; 0.415 µM in the experiment with 786-0 renal. Besides, the TGI in the experiment on HCC-2998 colon worked out at 0.0305 µM; in the experiment on OVCAR-5 ovarian, 0.194 µM; in the experiment with HOP-92 NSCLC, 4.03 µM; in the experiment on OVCAR-8 ovarian it was 0.0414 µM; in the experiment with HCT-116 colon it was 0.0441 µM; in the experiment with SF-295 CNS, 0.105 µM. Moreover, the TGI was 0.143 µM in the experiment with MALME-3M melanoma, over 27.9 µM in the experiment with K-562 leukemia and 0.0795 µM with UACC-257 melanoma.
Regarding `Nc1nc(NCC2(CO)CC2)cc(=O)[nH]1`, the TGI in the experiment on NCI/ADR-RES ovarian, in the experiment with RPMI-8226 leukemia, in the experiment with KM12 colon, with SW-620 colon, with 786-0 renal and in the experiment on HCC-2998 colon was over 100 µM each time. Also, the TGI in the experiment with OVCAR-5 ovarian, in the experiment on HT29 colon, with HOP-92 NSCLC, in the experiment with OVCAR-8 ovarian, in the experiment on HCT-116 colon and with SF-295 CNS was over 100 µM throughout. Also, the TGI with LOX IMVI melanoma, with SF-268 CNS, in the experiment on MALME-3M melanoma, in the experiment on K-562 leukemia and in the experiment with UACC-257 melanoma was over 100 µM in each case.
Take `C#CC(C)(C)OC(=O)C(=[N+]=[N-])C(C)=O`: the TGI with SF-539 CNS, in the experiment with RPMI-8226 leukemia, with KM12 colon, with SW-620 colon, in the experiment on 786-0 renal and in the experiment on HCC-2998 colon was over 10 µM throughout. In addition, the TGI in the experiment with OVCAR-5 ovarian, in the experiment on HT29 colon, in the experiment with HOP-92 NSCLC, with OVCAR-8 ovarian, in the experiment with HCT-116 colon and in the experiment with SF-295 CNS was over 10 µM in each case. Moreover, the TGI in the experiment with LOX IMVI melanoma, with SF-268 CNS, in the experiment with MDA-N, with MALME-3M melanoma, with K-562 leukemia and with UACC-257 melanoma was over 10 µM throughout.
As for `COc1ccc(-c2nc(-c3cc4c(ccc5ccccc54)oc3=O)cs2)cc1`, the TGI with SF-539 CNS was over 100 µM; in the experiment on RPMI-8226 leukemia, over 100 µM; in the experiment on KM12 colon it was over 100 µM; in the experiment with SW-620 colon, over 100 µM; in the experiment with 786-0 renal it was 82 µM; in the experiment on HCC-2998 colon it was over 100 µM. The TGI in the experiment with OVCAR-5 ovarian, with HT29 colon, with HOP-92 NSCLC, with HCT-116 colon, in the experiment with SF-295 CNS and in the experiment with LOX IMVI melanoma was over 100 µM each time. In addition, the TGI with SF-268 CNS, in the experiment on K-562 leukemia and with UACC-257 melanoma was over 100 µM each time.
As for `N#CC1=C(Nc2ccccc2)SC=C(c2ccccc2)NC1=NCc1ccccc1`, the TGI with NCI/ADR-RES ovarian, with SF-539 CNS, with RPMI-8226 leukemia, in the experiment with KM12 colon, with SW-620 colon and in the experiment on 786-0 renal was over 100 µM each time. The TGI in the experiment on OVCAR-5 ovarian, with OVCAR-8 ovarian, with HCT-116 colon, in the experiment on SF-268 CNS, with MDA-N and in the experiment on MALME-3M melanoma was over 100 µM throughout. Further, the TGI in the experiment on K-562 leukemia was found to be 97.6 µM.
On to `Cc1nn(C(=O)Cc2ccccc2)c2c1C(c1ccc(Cl)cc1)SC(N)=N2` (stereo unspecified), for which the TGI in the experiment with SF-539 CNS, in the experiment with RPMI-8226 leukemia, in the experiment with KM12 colon, in the experiment on SW-620 colon, with 786-0 renal and with HCC-2998 colon was over 100 µM each time. The TGI in the experiment on HT29 colon, in the experiment with OVCAR-8 ovarian, with HCT-116 colon, in the experiment with SF-295 CNS, in the experiment on LOX IMVI melanoma and in the experiment on SF-268 CNS was over 100 µM throughout. Further, the TGI in the experiment on MALME-3M melanoma, with K-562 leukemia and in the experiment on UACC-257 melanoma was over 100 µM each time.
Turning to `Cc1cc(C)c2c(c1)C/C(=C\c1ccccc1C(=O)O)C2=O`, the TGI in the experiment on SF-539 CNS, with RPMI-8226 leukemia, with KM12 colon, with SW-620 colon, in the experiment with 786-0 renal and with HCC-2998 colon was over 100 µM in each case. For the same molecule, the TGI with OVCAR-5 ovarian, in the experiment on HT29 colon, in the experiment with HOP-92 NSCLC, in the experiment on OVCAR-8 ovarian, in the experiment on HCT-116 colon and with SF-295 CNS was over 100 µM in each case. For the same molecule, the TGI in the experiment on LOX IMVI melanoma, with SF-268 CNS, with MDA-N, in the experiment on MALME-3M melanoma, with K-562 leukemia and in the experiment on UACC-257 melanoma was over 100 µM throughout.
